Source: article PMC8162404, “Proteomimetic surface fragments distinguish targets by function” (Chemical Science, 2020)

Legend:
[1] = target: T1, Gal-1 (Homo sapiens, UniProt P09382); test: Competition pull-down with lactose; format: binding; settings: H14 library; lactose 10 mM; read-out: Surface mapping KD (apparent), competition
T1 construct: made in house; host or cells: E. coli BL21(DE3)
Protocol: Interactions between the H14 helical LSMs and the targets were abundant, but safe recognition of the native PPI interfaces on the targets is a criterion of druggability. To gain insight into the ability of the LSMs to detect orthosteric spots, we carried out pull-down assays in the presence of the native ligands (Table 2) of the targets (Fig. 5). For highlighting the effect of the competitor on the binding fingerprints, KD ratios and the LSM replacement percentages were calculated and are represented as heat maps (see ESI, Fig. S7 ^†). […] This could be explained by the glycan selective native recognition domain of the protein. We note that the replacement pattern for a single probe can, in theory, be complex. […] Moreover, a single probe can bind to both orthosteric and non-orthosteric spots, which limits overall displacement levels. To avoid overlooking interesting orthosteric weak binders, direct replacement levels were assessed (see ESI, Fig. S7 ^†).
Pull-down assay and data analysis
Pull-down assay. LSM sublibraries were screened separately as previously described.(2) Experiments were performed in the following buffers: (i) 20 mM pH 7.4 HEPES, 150 mM NaCl, 5 mM CaCl2 for CaM; (ii) 50 mM pH 7.4 HEPES, 150 mM NaCl, 1 mM TCEP, 1 mM CaCl2 for S100 proteins; (iii) 20 mM pH 7.4 HEPES, 150 mM NaCl, 1 mM TCEP for Gal-1 and (iv) 20 mM pH 7.4 HEPES, 150 mM NaCl for RecQ-WH. Assays were performed in paper filter spin cups (Thermo Scientific) with sample volumes of 100 µl. Hexahistidine-tagged proteins were immobilized on previously washed Co-NTA resin (TALON, Takara Bio USA, Inc., Mountain View, CA) in 64 µM final concentration. LSM sublibrary was added, in which each of the 64 library members were used at a concentration of 1 µM. Samples were incubated at room temperature for 30 min with shaking at 100 rpm. Then, samples were centrifuged at 1000 rpm for 2 min and washed with 100 µl pull-down buffer to remove unbound compounds.
The control experiments were performed using the same compounds and the resin but without the immobilized protein. In case of competitive assays, competitor peptides were added to LSM sublibrary samples in 200 µM final concentration. In the case of Gal-1, lactose (competitor) was used in a concentration of 10 mM. Experiments were performed at least twice. Mean […]
LC-MS methods and parameters. HPLC/ESI-MS analysis was used to characterize the samples from the pull-down assay. LC-MS analysis was performed with a Thermo Scientific Dionex UltiMate 3000 HPLC system interfaced to an LTQ ion trap mass spectrometer (Thermo Electron Corp., San Jose, CA, USA). Samples were injected onto an Aeris Widepore XB-C18 (250 x 4.6 mm) analytical HPLC column using gradient elution 5-80 % solution B during 25 minutes. For pull-down samples, eluent composition was 0.1% acetic acid in distilled water (Solution A) and 0.1% acetic acid in acetonitrile (solution B). Mass spectra were acquired in full scan mode from 200 to 2000 m/z range. For overlapping peaks, selective reaction monitoring (SRM) was […]
MS data analysis. Thermo Xcalibur 2.2 software was used for peak identification and integration. The majority of the foldameric fragments could be resolved independently via HPLC-MS/MS measurements based on molecular weight, MS fragmentation pattern and retention time. Peaks of some foldamers with β3-hIle or β3-hLeu in position R2 could not be resolved, these were integrated and averaged. In the processing method, each sample component was associated to a chromatographic peak based on previously identified mass (m/z) and retention time (ref (2) and Table S7-10). Using ICIS peak detection algorithm, the general detection and integration criteria were: smoothing points: 5, baseline window: 80, area noise factor: 5, peak noise factor: 10. Using these processing setups, all raw data files were reprocessed together and analyzed. Errors in peak identification during the automatic processing were corrected manually.
Calculation of the discussed parameters […]

[2] = target: T2, CaM (Bos taurus, UniProt P62157); test: Pull-down assay with immobilized protein and LSM libraries; format: binding, bovine; settings: H12 library; 1:2 stoichiometry assumed; read-out: Surface mapping KD (apparent)
T2 construct: made in house; host or cells: E. coli BL21 (DE3)
How it was run: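 His-tagged protein immobilized on Co-NTA resin, equilibrated 30 min at room temperature with LSM sublibraries (64 members, […]), equimolar protein to total probe. CaM buffer: 20 mM HEPES pH 7.4, 150 mM NaCl, 5 mM CaCl2. Bound fractions from HPLC-MS loss of unbound probe versus protein-free resin control; Kd derived.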

[3] = target: T1, Gal-1; test: as above; format: binding; settings: H12 library; 1:1 binding assumed; read-out: Surface mapping KD (apparent)
How it was run: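 His-tagged protein immobilized on Co-NTA resin (64 µM) in 20 mM HEPES pH 7.4, 150 mM NaCl, equilibrated 30 min at room temperature with foldamer LSM sublibraries at equimolar total concentration. Unbound fractions quantified by HPLC-MS versus protein-free resin control; apparent KD assumes 1:1 binding.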

[4] = target: T3, S100A4 (Homo sapiens, UniProt P26447); test: as above; format: binding; settings: H12 library; 1:1 binding assumed; read-out: Surface mapping KD (apparent)
T3 construct: made in house; host or cells: Escherichia coli BL21(DE3)
T3 sequence (P26447 whole entry): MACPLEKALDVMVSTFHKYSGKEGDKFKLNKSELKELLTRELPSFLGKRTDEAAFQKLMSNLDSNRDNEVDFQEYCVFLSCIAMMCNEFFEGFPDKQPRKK
How it was run: (§1)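 Buffers were HEPES pH 7.4 with 150 mM NaCl, plus 1 mM TCEP and 1 mM CaCl2 (50 mM HEPES) for S100A4 and S100B, 1 mM TCEP for Gal-1, and no additive for RecQ-WH. Immobilized protein at 64 µM was equilibrated 30 min with the LSM sublibrary, and unbound probes were measured by LC-MS.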

[5] = target: T4, S100B (Homo sapiens, UniProt P04271); test: as above; format: binding; settings: H12 library; 1:1 binding assumed; read-out: Surface mapping KD (apparent)
T4 construct: made in house; host or cells: Escherichia coli BL21(DE3)
T4 sequence (P04271 1-92): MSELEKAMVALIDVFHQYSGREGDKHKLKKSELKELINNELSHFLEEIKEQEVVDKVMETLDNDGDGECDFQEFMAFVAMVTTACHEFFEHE
How it was run: as §1

T1 sequence (P09382 whole entry): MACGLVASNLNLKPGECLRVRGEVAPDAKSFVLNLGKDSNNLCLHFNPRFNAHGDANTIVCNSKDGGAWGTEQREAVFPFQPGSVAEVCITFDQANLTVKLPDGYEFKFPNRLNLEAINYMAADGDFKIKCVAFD

Row | SMILES | Kd [1] | Kd [2] | Kd [3] | Kd [4] | Kd [5]
1 | NC(=O)[C@H]1CCCC[C@@H]1NC(=O)C[C@H](CCC(=O)O)NC(=O)[C@H]1CCCC[C@@H]1NC(=O)[C@H]1CCCC[C@@H]1NC(=O)C[C@H](CCC(=O)O)NC(=O)[C@H]1CCCC[C@@H]1N [H14 EE] | 353 µM |  |  |  | 
2 | NC(=O)[C@H]1CCCC[C@@H]1NC(=O)C[C@H](CC(=O)O)NC(=O)[C@H]1CCCC[C@@H]1NC(=O)[C@H]1CCCC[C@@H]1NC(=O)C[C@H](CCC(=O)O)NC(=O)[C@H]1CCCC[C@@H]1N [H14 ED] | 318 µM |  |  |  | 
3 | CC(C)[C@@H](CC(=O)N[C@H]1CCCC[C@@H]1C(N)=O)NC(=O)[C@H]1CCCC[C@@H]1NC(=O)[C@H]1CCCC[C@@H]1NC(=O)C[C@H](CC(=O)O)NC(=O)[C@H]1CCCC[C@@H]1N [H14 DV] | 316 µM |  |  |  | 
4 | NC(=O)[C@H]1CCCC[C@@H]1NC(=O)C[C@H](CO)NC(=O)[C@H]1CCCC[C@@H]1NC(=O)[C@H]1CCCC[C@@H]1NC(=O)C[C@H](CCC(=O)O)NC(=O)[C@H]1CCCC[C@@H]1N [H14 ES] | 282 µM |  |  |  | 
5 | NC(=O)[C@H]1CCCC[C@@H]1NC(=O)C[C@H](CCC(=O)O)NC(=O)[C@H]1CCCC[C@@H]1NC(=O)[C@H]1CCCC[C@@H]1NC(=O)C[C@H](CC(=O)O)NC(=O)[C@H]1CCCC[C@@H]1N [H14 DE] | 318 µM |  |  |  | 
6 | NC(=O)CC[C@@H](CC(=O)N[C@H]1CCCC[C@@H]1C(N)=O)NC(=O)[C@H]1CCCC[C@@H]1NC(=O)[C@H]1CCCC[C@@H]1NC(=O)C[C@H](CCC(=O)O)NC(=O)[C@H]1CCCC[C@@H]1N [H14 EQ] | 443 µM |  |  |  | 
7 | CC[C@H](C)[C@@H](CC(=O)N[C@H]1CCC[C@@H]1C(=O)N[C@H]1CCC[C@@H]1C(N)=O)NC(=O)[C@H]1CCC[C@@H]1NC(=O)[C@H]1CCC[C@@H]1NC(=O)C[C@@H](NC(=O)[C@H]1CCC[C@@H]1NC(=O)[C@H]1CCC[C@@H]1N)[C@@H](C)CC [H12 II] |  | 67 µM | 395 µM | 79 µM | 25 µM
8 | C[C@@H](O)[C@@H](CC(=O)N[C@H]1CCCC[C@@H]1C(N)=O)NC(=O)[C@H]1CCCC[C@@H]1NC(=O)[C@H]1CCCC[C@@H]1NC(=O)C[C@H](CC(=O)O)NC(=O)[C@H]1CCCC[C@@H]1N [H14 DT] | 282 µM |  |  |  | 
9 | N=C(N)NCCC[C@@H](CC(=O)N[C@H]1CCC[C@@H]1C(=O)N[C@H]1CCC[C@@H]1C(N)=O)NC(=O)[C@H]1CCC[C@@H]1NC(=O)[C@H]1CCC[C@@H]1NC(=O)C[C@H](CCCNC(=N)N)NC(=O)[C@H]1CCC[C@@H]1NC(=O)[C@H]1CCC[C@@H]1N [H12 RR] |  | 123 µM | 181 µM | 210 µM | 89 µM
10 | NCCCC[C@@H](CC(=O)N[C@H]1CCC[C@@H]1C(=O)N[C@H]1CCC[C@@H]1C(=O)N[C@H](CC(=O)N[C@H]1CCC[C@@H]1C(=O)N[C@H]1CCC[C@@H]1C(N)=O)Cc1ccccc1)NC(=O)[C@H]1CCC[C@@H]1NC(=O)[C@H]1CCC[C@@H]1N [H12 KF] |  | 239 µM | 292 µM | 416 µM | 66 µM
11 | CC[C@H](C)[C@@H](CC(=O)N[C@H]1CCC[C@@H]1C(=O)N[C@H]1CCC[C@@H]1C(=O)N[C@H](CC(=O)N[C@H]1CCC[C@@H]1C(=O)N[C@H]1CCC[C@@H]1C(N)=O)Cc1ccccc1)NC(=O)[C@H]1CCC[C@@H]1NC(=O)[C@H]1CCC[C@@H]1N [H12 IF] |  | 28 µM | 376 µM | 32 µM | 22 µM
12 | CC[C@H](C)[C@@H](CC(=O)N[C@H]1CCC[C@@H]1C(=O)N[C@H]1CCC[C@@H]1C(N)=O)NC(=O)[C@H]1CCC[C@@H]1NC(=O)[C@H]1CCC[C@@H]1NC(=O)C[C@H](CCCNC(=N)N)NC(=O)[C@H]1CCC[C@@H]1NC(=O)[C@H]1CCC[C@@H]1N [H12 RI] |  | 252 µM | 194 µM | 245 µM | 56 µM
13 | CC(C)C[C@@H](CC(=O)N[C@H]1CCC[C@@H]1C(=O)N[C@H]1CCC[C@@H]1C(=O)N[C@H](CC(=O)N[C@H]1CCC[C@@H]1C(=O)N[C@H]1CCC[C@@H]1C(N)=O)Cc1ccc(O)cc1)NC(=O)[C@H]1CCC[C@@H]1NC(=O)[C@H]1CCC[C@@H]1N [H12 LY] |  | 28 µM | 347 µM | 100 µM | 56 µM
14 | CSCC[C@@H](CC(=O)N[C@H]1CCC[C@@H]1C(=O)N[C@H]1CCC[C@@H]1C(N)=O)NC(=O)[C@H]1CCC[C@@H]1NC(=O)[C@H]1CCC[C@@H]1NC(=O)C[C@H](CCCNC(=N)N)NC(=O)[C@H]1CCC[C@@H]1NC(=O)[C@H]1CCC[C@@H]1N [H12 RM] |  | 464 µM | 201 µM | 335 µM | 96 µM
15 | NC(=O)C[C@@H](CC(=O)N[C@H]1CCCC[C@@H]1C(N)=O)NC(=O)[C@H]1CCCC[C@@H]1NC(=O)[C@H]1CCCC[C@@H]1NC(=O)C[C@H](CCC(=O)O)NC(=O)[C@H]1CCCC[C@@H]1N [H14 EN] | 453 µM |  |  |  | 
16 | CC[C@H](C)[C@@H](CC(=O)N[C@H]1CCC[C@@H]1C(=O)N[C@H]1CCC[C@@H]1C(=O)N[C@@H](CCSC)CC(=O)N[C@H]1CCC[C@@H]1C(=O)N[C@H]1CCC[C@@H]1C(N)=O)NC(=O)[C@H]1CCC[C@@H]1NC(=O)[C@H]1CCC[C@@H]1N [H12 IM] |  | 211 µM | 378 µM | 381 µM | 74 µM
17 | CSCC[C@@H](CC(=O)N[C@H]1CCC[C@@H]1C(=O)N[C@H]1CCC[C@@H]1C(N)=O)NC(=O)[C@H]1CCC[C@@H]1NC(=O)[C@H]1CCC[C@@H]1NC(=O)C[C@H](CC(C)C)NC(=O)[C@H]1CCC[C@@H]1NC(=O)[C@H]1CCC[C@@H]1N [H12 LM] |  | 211 µM | 378 µM | 381 µM | 74 µM
18 | CC[C@H](C)[C@@H](CC(=O)N[C@H]1CCC[C@@H]1C(=O)N[C@H]1CCC[C@@H]1C(N)=O)NC(=O)[C@H]1CCC[C@@H]1NC(=O)[C@H]1CCC[C@@H]1NC(=O)C[C@H](CC(C)C)NC(=O)[C@H]1CCC[C@@H]1NC(=O)[C@H]1CCC[C@@H]1N [H12 LI] |  | 67 µM | 415 µM | 143 µM | 37 µM
19 | NC(=O)[C@H]1CCCC[C@@H]1NC(=O)C[C@H](CO)NC(=O)[C@H]1CCCC[C@@H]1NC(=O)[C@H]1CCCC[C@@H]1NC(=O)C[C@H](CC(=O)O)NC(=O)[C@H]1CCCC[C@@H]1N [H14 DS] | 415 µM |  |  |  | 
